What was measured:
brain = test: Maturation of TTM-001 capsid, NGS enrichment in brain of CD-1 Outbred mice; type: in vivo; conditions: NGS fold-enrichment of TTM-001 matured AAV capsid variants in the brain of CD-1 Outbred mice; intravenous 1.0×10^12 VG/dose; 14 days in life; RNA; relative to non-matured TTM-001 control
Excerpt: This Example describes maturation of the TTM-001 (SEQ ID NO: 981 (amino acid) and 983 (DNA), comprising SEQ ID NO: 941) and TTM-002 (SEQ ID NO: 982 (amino acid) and 984 (DNA), comprising SEQ ID NO: 2) capsid variants to further enhance their transduction and biodistribution in the central nervous system and evolve the AAV capsid variants to provide further cross-species compatibility. Two approaches were used to mature the TTM-001 and TTM-002 capsid sequences in order to randomize and mutate within and around the peptide insert comprised within loop IV of the capsid variant. […] In the first maturation approach, sets of three contiguous amino acids were randomized across the mutagenesis region in the TTM-001 and TTM-002 sequences, which spanned from position 450 to position 466, numbered according to SEQ ID NO: 981 and 982. In the second maturation approach, mutagenic primers were used to introduce point mutations at a low frequency, scattered across the mutagenesis region in the TTM-001 and TTM-002 sequences ranging from position 449 to position 466, numbered according to SEQ ID NO: 981 and 982. AAV capsid variants arising from each maturation approach for TTM-001 were pooled together and AAV capsid variants arising from each maturation approach for TTM-002 were also pooled together, for subsequent testing and characterization in mice.
The library of pooled matured AAV capsid variants generated from TTM-001 or library of pooled matured AAV capsid variants generated from the TTM-002 matured AAV capsid variant each were intravenously injected into the tail vein of three female CD-1 Outbred mice (Charles River) at a dose of 1.0×10^12 VG/dose. After 14-days in life, the brains of the mice were isolated and RNA was extracted. Following RNA recovery and RT-PCR amplification, a systematic NGS enrichment analysis was performed to calculate the fold enrichment ratio relative to the corresponding TTM-001 or TTM-002 control, and the peptides comprised within the variants were identified. The data for the TTM-001 matured capsid variants is provided in Table 13 and the data for the TTM-002 matured capsid variants is provided in Table 14.

[1] = tested on: brains, heart, liver, muscle, and DRG of the NHPs; test: Maturation of TTM-001 and TTM-002 capsids, NGS enrichment in NHP tissues; type: in vivo
Procedure, shortened: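 Variants carry mutations within and flanking the loop IV peptide insert: positions 450–466 were triplet-randomized, while positions 449–466 received low-frequency point mutations. The combined pool went into two NHPs, and each peptide was scored by NGS enrichment ratio against AAV9.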

[2] = NHP DRG, NGS, relative to AAV9 control
[3] = NHP brain, NGS, relative to AAV9 control
[4] = NHP heart, NGS, relative to AAV9 control
[5] = NHP liver DNA, NGS, relative to AAV9 control
[6] = NHP liver RNA, NGS, TTM-001 and TTM-002 matured AAV capsid variants, relative to AAV9 control
[7] = NHP muscle, NGS, relative to AAV9 control
[8] = NGS fold-enrichment, DRG, NHP, relative to AAV9
[9] = NGS fold-enrichment, brain, NHP, relative to AAV9
[10] = NGS fold-enrichment, heart, NHP, relative to AAV9
[11] = NGS fold-enrichment, liver DNA, NHP, relative to AAV9
[12] = NGS fold-enrichment, liver RNA, NHP, relative to AAV9
[13] = NGS fold-enrichment, muscle, NHP, relative to AAV9

KTINGSGSPHSKAWLLQT
Fold enrichment over TTM-001 (brain): 2.240 fold

KTINGSGSPHWLAQNQQT
Fold enrichment over TTM-001 (brain): 3.192 fold

KTINASGSPHSKAQGQQT
Fold enrichment over TTM-001 (brain): 2.108 fold

KTINGSGSPHSKAVRAQT
Fold enrichment over TTM-001 (brain): 2.538 fold

KTINGSGSPHFLRQNQQT
Fold enrichment over TTM-001 (brain): 4.777 fold

KTINGSGSPHSKAQVLIT
Fold enrichment over TTM-001 (brain): 2.317 fold

KTINGRISPHGKAQNQQT
Fold enrichment over TTM-001 (brain): 2.492 fold

KTINGSVSPHLYAQNQQT (peptide inserted in AAV capsid)
Fold enrichment over TTM-001 (brain): 2.028 fold

KTINGSGSPHSVYLNQQT
Fold enrichment over TTM-001 (brain): 4.426 fold

KTINGSGSPHSKAQTMRT
Fold enrichment over TTM-001 (brain): 2.453 fold

KTINGSGSPHSTRLNQQT
Fold enrichment over TTM-001 (brain): 2.860 fold

KTINGSGSPHSKMRPQQT
Fold enrichment over TTM-001 (brain): 2.652 fold

KTINGSGSPHSKLRSQQT
Fold enrichment over TTM-001 (brain): 2.309 fold

KTINGMLSPHRKAQNQQT
Fold enrichment over TTM-001 (brain): 2.646 fold

KTINGSGSPHSSRKNQQT
Fold enrichment over TTM-001 (brain): 2.585 fold

KTINGSGSPHSKARGIQT
Fold enrichment over TTM-001 (brain): 2.140 fold

KTINGSGSPHSKCLLQQT
Fold enrichment over TTM-001 (brain): 3.374 fold

KTINGCSSPHRKAQNQQT
Fold enrichment over TTM-001 (brain): 2.291 fold

KTINGVTSPHWKAQNQQT
Fold enrichment over TTM-001 (brain): 2.387 fold

KTINGSGSPHSYLRNQQT
Fold enrichment over TTM-001 (brain): 4.566 fold

KTINGSWSPHMLAQNQQT (peptide inserted in AAV capsid)
Fold enrichment over TTM-001 (brain): 2.106 fold

KTINLSRSPHSKAQNQQT
Fold enrichment over TTM-001 (brain): 2.246 fold

KTINGSGSPHFHLQNQQT
Fold enrichment over TTM-001 (brain): 2.121 fold

KTINGSGSPHWVSQNQQT
Fold enrichment over TTM-001 (brain): 2.007 fold

KTINGSKSPHRKAQNQQT
Fold enrichment over TTM-001 (brain): 2.696 fold

KTINGSGSPHSKWLVQQT
Fold enrichment over TTM-001 (brain): 2.333 fold

KTINGSGSPHSKRLLQQT
Fold enrichment over TTM-001 (brain): 2.659 fold

KTINGSGSPHSLFANQQT
Fold enrichment over TTM-001 (brain): 2.365 fold

KTINGSGSPHSTWTNQQT
Fold enrichment over TTM-001 (brain): 2.307 fold

KTINGSGSPHSLCSNQQT
Fold enrichment over TTM-001 (brain): 3.413 fold

KTINGSGSPHSKAQTART
Fold enrichment over TTM-001 (brain): 2.363 fold

KTINGSGSPHSKRRLQQT
Fold enrichment over TTM-001 (brain): 4.451 fold

KTINGSGSPHSKAQFLRT
Fold enrichment over TTM-001 (brain): 2.156 fold

KTINGSGSPHSKAWLIQT
Fold enrichment over TTM-001 (brain): 2.499 fold

KTINGSGSPHSKAQRRQT
Fold enrichment over TTM-001 (brain): 2.479 fold

KTINGSCSPHVRAQNQQT
Fold enrichment over TTM-001 (brain): 2.406 fold

KTINGSGSPHSKSRRQQT
Fold enrichment over TTM-001 (brain): 4.175 fold

KTINGSLSPHSCAQNQQT
Fold enrichment over TTM-001 (brain): 3.268 fold

KTINGSGSPHSKLSRQQT
Fold enrichment over TTM-001 (brain): 2.380 fold

KTINGSGSPHSKAKLRQT
Fold enrichment over TTM-001 (brain): 3.976 fold

KTINGSGSPHSKVRVQQT
Fold enrichment over TTM-001 (brain): 2.034 fold

KTINGSGSPHSKCSNQQT
Fold enrichment over TTM-001 (brain): 2.020 fold

KTINGSGSPHLFRQNQQT
Fold enrichment over TTM-001 (brain): 2.324 fold

KTINGSGSPHSRMRNQQT
Fold Enrichment relative to AAV9, DRG (NHP) [1, 2]: 0.000 fold
Fold Enrichment relative to AAV9, Brain (NHP) [1, 3]: 0.000 fold
Fold Enrichment relative to AAV9, Heart (NHP) [1, 4]: 0.000 fold
Fold Enrichment relative to AAV9, Liver DNA (NHP) [1, 5]: 2.816 fold
Fold Enrichment relative to AAV9, Liver RNA (NHP) [1, 6]: 48.902 fold
Fold Enrichment relative to AAV9, Muscle (NHP) [1, 7]: 0.000 fold

KTINGSGSPHSKARWQQT
Fold Enrichment relative to AAV9, DRG (NHP) [1, 2]: 0.000 fold
Fold Enrichment relative to AAV9, Brain (NHP) [1, 3]: 0.000 fold
Fold Enrichment relative to AAV9, Heart (NHP) [1, 4]: 0.000 fold
Fold Enrichment relative to AAV9, Liver DNA (NHP) [1, 5]: 2.377 fold
Fold Enrichment relative to AAV9, Liver RNA (NHP) [1, 6]: 45.017 fold
Fold Enrichment relative to AAV9, Muscle (NHP) [1, 7]: 0.000 fold

KTINGSGSPHSKMPCQQT
Fold Enrichment relative to AAV9, DRG (NHP) [1, 2]: 0.000 fold
Fold Enrichment relative to AAV9, Brain (NHP) [1, 3]: 0.000 fold
Fold Enrichment relative to AAV9, Heart (NHP) [1, 4]: 0.000 fold
Fold Enrichment relative to AAV9, Liver DNA (NHP) [1, 5]: 1.063 fold
Fold Enrichment relative to AAV9, Liver RNA (NHP) [1, 6]: 15.343 fold
Fold Enrichment relative to AAV9, Muscle (NHP) [1, 7]: 0.000 fold

KTINGSGSPHPFVQNQQT
Fold Enrichment relative to AAV9, DRG (NHP) [1, 2]: 0.000 fold
Fold Enrichment relative to AAV9, Brain (NHP) [1, 3]: 0.000 fold
Fold Enrichment relative to AAV9, Heart (NHP) [1, 4]: 0.000 fold
Fold Enrichment relative to AAV9, Liver DNA (NHP) [1, 5]: 1.286 fold
Fold Enrichment relative to AAV9, Liver RNA (NHP) [1, 6]: 12.091 fold
Fold Enrichment relative to AAV9, Muscle (NHP) [1, 7]: 0.000 fold

KTINGSGSPHSFWSNQQT
Fold Enrichment relative to AAV9, DRG (NHP) [1, 2]: 0.000 fold
Fold Enrichment relative to AAV9, Brain (NHP) [1, 3]: 0.000 fold
Fold Enrichment relative to AAV9, Heart (NHP) [1, 4]: 0.000 fold
Fold Enrichment relative to AAV9, Liver DNA (NHP) [1, 5]: 1.345 fold
Fold Enrichment relative to AAV9, Liver RNA (NHP) [1, 6]: 22.857 fold
Fold Enrichment relative to AAV9, Muscle (NHP) [1, 7]: 0.000 fold

KTINGSGSPHSCQSNQQT
Fold Enrichment relative to AAV9, DRG (NHP) [1, 8]: 0.000 fold
Fold Enrichment relative to AAV9, Brain (NHP) [1, 9]: 0.000 fold
Fold Enrichment relative to AAV9, Heart (NHP) [1, 10]: 0.000 fold
Fold Enrichment relative to AAV9, Liver DNA (NHP) [1, 11]: 1.468 fold
Fold Enrichment relative to AAV9, Liver RNA (NHP) [1, 12]: 10.631 fold
Fold Enrichment relative to AAV9, Muscle (NHP) [1, 13]: 0.000 fold

KTINWSRSPHSKAQNQQT
Fold Enrichment relative to AAV9, DRG (NHP) [1, 2]: 0.000 fold
Fold Enrichment relative to AAV9, Brain (NHP) [1, 3]: 0.000 fold
Fold Enrichment relative to AAV9, Heart (NHP) [1, 4]: 0.000 fold
Fold Enrichment relative to AAV9, Liver DNA (NHP) [1, 5]: 5.624 fold
Fold Enrichment relative to AAV9, Liver RNA (NHP) [1, 6]: 14.399 fold
Fold Enrichment relative to AAV9, Muscle (NHP) [1, 7]: 0.000 fold

KTINGSGSPHKSGQNPQT
Fold Enrichment relative to AAV9, DRG (NHP) [1, 8]: 0.000 fold
Fold Enrichment relative to AAV9, Brain (NHP) [1, 9]: 0.000 fold
Fold Enrichment relative to AAV9, Heart (NHP) [1, 10]: 0.000 fold
Fold Enrichment relative to AAV9, Liver DNA (NHP) [1, 11]: 11.790 fold
Fold Enrichment relative to AAV9, Liver RNA (NHP) [1, 12]: 11.014 fold
Fold Enrichment relative to AAV9, Muscle (NHP) [1, 13]: 0.000 fold

KTINGSGSPHSKAFYRQT
Fold Enrichment relative to AAV9, DRG (NHP) [1, 2]: 0.000 fold
Fold Enrichment relative to AAV9, Brain (NHP) [1, 3]: 0.000 fold
Fold Enrichment relative to AAV9, Heart (NHP) [1, 4]: 0.000 fold
Fold Enrichment relative to AAV9, Liver DNA (NHP) [1, 5]: 3.577 fold
Fold Enrichment relative to AAV9, Liver RNA (NHP) [1, 6]: 77.541 fold
Fold Enrichment relative to AAV9, Muscle (NHP) [1, 7]: 0.000 fold
